From patent US9551711B2, “Compositions and methods for detecting nitration of PKG-1α and methods of use thereof” (Augusta University Research Institute, Inc., priority 2013, dated 2017)

Tests used:
[1] = test system: pulmonary artery smooth muscle cells (PASMC); assay: PASMC cellular metabolism (alamarBlue assay); format: cell-based, lamb; conditions: WT-PKG-1α transfected PASMC; SIN-1 500 μM, 48 h
Experimental: This was determined via the alamarBlue assay (AbD Serotec, Oxford, UK). The assay is based on the reducing ability of metabolically active cells to convert the active reagent, resazurin, into a fluorescent and colorimetric indicator, resorufin. When added to cell cultures, the oxidized, resazurin enters the cytosol and is converted to the reduced, resorufin in the mitochondria by accepting electrons from NADH, NADPH, FADH2, FMNH2, as well as from the cytochromes. The non-toxic and cell permeable nature of alamarBlue permits the long-term exposure of cells. PASMC were grown on a 10 cm dish to 75% confluence, transfected with WT-PKG-1α or Y247F-PKG-1α cDNA, and incubated at 37° C. for 20 h. The cells were trypsinized and seeded onto a 24-well plate at a density of 20,000 cells per well and grown for an additional 4 h in serum and phenol free DMEM growth medium containing 1% FBS and antibiotics. The cells were then treated with or without SIN-1 (500 μM, 48 h) in the presence of 10% well volume of alamarBlue dye. The color change of the dye was determined at an excitation wavelength of 560 nm and an emission wavelength of 590 nm in a Fluoroskan Ascent plate reader. […] Cellular metabolism was expressed as follows: […]

PKG-1α = biological target: T1, PKG-1α (Homo sapiens, UniProt Q13976, Y247F); assay: PKG activity in transfected HEK-293T cells; format: cell-based; parameters: made in house; host or cells: HEK-293T; conditions: HEK-293T expressing Y247F-PKG-1α; SIN-1 500 μM, 30 min
T1 sequence (Q13976 2-671 Y247F): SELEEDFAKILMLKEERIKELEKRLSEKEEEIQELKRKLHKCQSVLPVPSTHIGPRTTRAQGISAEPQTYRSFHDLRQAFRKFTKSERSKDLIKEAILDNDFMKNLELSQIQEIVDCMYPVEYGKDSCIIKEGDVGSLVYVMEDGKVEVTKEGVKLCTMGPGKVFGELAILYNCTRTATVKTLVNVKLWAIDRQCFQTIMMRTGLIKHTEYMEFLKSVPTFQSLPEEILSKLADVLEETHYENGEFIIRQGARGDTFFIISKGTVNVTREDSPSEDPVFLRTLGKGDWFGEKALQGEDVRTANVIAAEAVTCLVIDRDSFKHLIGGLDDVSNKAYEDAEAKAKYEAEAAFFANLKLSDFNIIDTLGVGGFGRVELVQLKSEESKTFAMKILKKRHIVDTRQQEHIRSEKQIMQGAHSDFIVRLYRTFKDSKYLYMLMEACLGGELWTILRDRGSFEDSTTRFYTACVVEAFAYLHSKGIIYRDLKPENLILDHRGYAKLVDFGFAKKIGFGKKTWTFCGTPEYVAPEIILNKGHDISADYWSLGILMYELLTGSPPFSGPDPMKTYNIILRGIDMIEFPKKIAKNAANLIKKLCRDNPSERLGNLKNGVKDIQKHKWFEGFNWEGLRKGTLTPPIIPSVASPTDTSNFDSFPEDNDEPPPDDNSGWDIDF
Experimental: To determine the role of tyrosine 247 and tyrosine 425 in mediating the nitration dependent inhibition of PKG-1α kinase activity, Y247F- and Y425F-PKG-1α mutants were generated and expressed in HEK-293T cells. HEK-293T cells were transiently transfected with expression plasmids containing WT-, Y247F-, or Y425F-PKG-1α for 48 h. […] Protein extracts were immunoprecipitated using an antibody raised against PKG-1α and the level of nitrated PKG-1α determined by probing the membranes with an antiserum raised against 3-NT. The blots were then stripped and re-probed for PKG-1α to normalize for the efficiency of the immunoprecipitation.
Total PKG activity was determined using a non-radioactive immunoassay in cell lysates, according to the manufacturer's directions. […]
After incubation for 30 min at 30° C. to allow the phosphorylation of the bound substrate, an HRP conjugated anti-phosphothreonine specific antibody was added to convert a chromogenic substrate to a colorimetric substrate that was subsequently read spectrophotometrically at 450 nm. The change in absorbance reflected the relative activity of PKG in the sample. […] The kinetic constants were determined using nonlinear regression (curve fit) analysis (GraphPad Prism Software Inc.).

3-morpholinosydnonimine N-ethylcarbamide [SIN-1]
metabolism [1]: stimulated | cGMP dependent PKG activity (PKG-1α): unaffected
